Here are results for 6 compounds from US20220257636A1, “REDUCTION OF BONE RESORPTION, ESPECIALLY IN CHRONIC JOINT DISEASES” (TECHNISCHE UNIVERSITÄT DARMSTADT, priority 2019, published 2022).

Entries after “also recorded” stand apart in the source; their conditions may differ. {Cy5} = Cyanine5 fluorescent label

For data set [1], the system named is pre-osteoclasts. The data set is described as follows: Induction of osteoclast genesis, substances added to pre-osteoclasts. In kind it is cell-based, human. Conditions: TLR7/8 agonist added to pre-osteoclasts. The method, then: (§1) After 9 to 12 days the cells were fixed and tested for the osteoclast marker TRAP (tartrate-resistant acid phosphatase). TRAP positive cells which also comprised at least three nuclei were classified as osteoclasts and counted with the light microscope.
(§2) Isolated human CD14^+ monocytes were treated with 1 μg/ml miR-574-5p oe sEVs or ScrC sEVs at different time points of the differentiation (FIG. 8A, 8B, 8C).

The test system of data set [2] is CD14+ monocytes. Put plainly: Cytokine mRNA levels by RT-qPCR after stimulation of CD14+ monocytes. The data set is classed as cell-based, human. As to the method: CD14^+ monocytes were stimulated with sEVs from the synovial fluid of ACPA positive patients with rheumatoid arthritis (4 μg/ml), with miR-574-5p oe sEVs (1 μg/ml) or with ScrC sEVs (1 μg/ml) for 4 hours each. Then the whole RNA was isolated and the mRNA levels of IL-23, IL-8, INFα, IL-1β and TNFα were analyzed with RT-qPCR. These cytokines are known for their influence onto the differentiation of osteoclasts (Amara-sekara D. S., Yun Ii., Kim S., Lee N. and Rho J. (2018). “Regulation of Osteoclast Differentiation by Cytokine Networks.” Immune Netw 18: • 1-18). The sequences of the primer pairs used are shown in the sequence protocol (SEQ ID NOs: 6-7 for INFα, SEQ ID NOs: 8-9 for IL-23, SEQ ID NOs: 10-11 for TNFα, SEQ ID NOs: 12-13 for IL-1β and SEQ ID NOs: 14-15 for IL-8). For the normalization of the cDNA amounts in different samples the levels of β-actin were used (primer pair: SEQ ID NOs: 16-17).

The test system of data set [3] is CD14+ monocytes. Put plainly: Induction of osteoclast genesis (count of TRAP positive multinuclear cells), substances added to CD14+ monocytes. The data set is classed as cell-based, human.
From the text: (§3) CD14^+ monocytes were isolated from PMBCs (peripheral blood mononuclear cells) of healthy donors and stimulated with M-CSF (recombinant human macrophage colony-stimulating factor), RANK-L (receptor activator of NF-κB ligand) and different concentrations of the isolated sEVs. With the sEVs isolated from the synovial fluid both freshly isolated monocytes and differentiated M2-like macrophages were stimulated (FIG. 2).
as §1, §2
The influence of the miR-574-5p PNA AntagomiR which was coupled to CPP onto the osteoclast genesis was tested. This scheme has been adapted such that on day 1 the CPP-coupled miR-574-5p PNA AntagomiR (CPP-PNA) was added in concentrations of 10 μM or 20 μM. The negative control was conducted without any addition of CPP-PNA (0 μm CPP-PNA). […] Also for this experiment freshly isolated human monocytes were used. After the completion of the differentiation matured osteoclasts were visualized with the help of histologic staining (detection of tartrate-resistant acid phosphatases, TRAP). Subsequently, multinuclear TRAP positive cells are quantified under a light microscope.

Data set [4] relates to freshly isolated human monocytes.
Experimental: The cytotoxicity was tested with an MTT assay in which the eponymous dye MTT (3-(4,5-dimethylthiazol-2-yl)-2,5-diphenyltetrazoliumbromide) is used. As negative control a PNA with a sequence which was not complementary to miR-574-5p and which was also bound to CPP by means of the PEG linker was tested (SEQ ID NO: 30). The CPP-PNA construct of the negative control used can be illustrated as follows (from the N-terminus to the C-terminus): [sequence]-(eg1)-[sequence](K—NH2). The negative control differs from the above-described construct according to the present invention only with respect to the PNA sequence.
The cytotoxicity was tested on freshly isolated human monocytes.
Data set [5] deals with M2-like macrophages. Put plainly: Induction of osteoclast genesis (count of TRAP positive multinuclear cells), substances added to M2-like macrophages. The data set is classed as cell-based, human. Conditions: added with miR-574-5p to M2-like macrophages (FIG. 10D).
From the text: as §3, §1, §2

The target in data set [6] is T1, TLR8 (Homo sapiens, UniProt Q9NR97).
T1 sequence (Q9NR97 27-1041): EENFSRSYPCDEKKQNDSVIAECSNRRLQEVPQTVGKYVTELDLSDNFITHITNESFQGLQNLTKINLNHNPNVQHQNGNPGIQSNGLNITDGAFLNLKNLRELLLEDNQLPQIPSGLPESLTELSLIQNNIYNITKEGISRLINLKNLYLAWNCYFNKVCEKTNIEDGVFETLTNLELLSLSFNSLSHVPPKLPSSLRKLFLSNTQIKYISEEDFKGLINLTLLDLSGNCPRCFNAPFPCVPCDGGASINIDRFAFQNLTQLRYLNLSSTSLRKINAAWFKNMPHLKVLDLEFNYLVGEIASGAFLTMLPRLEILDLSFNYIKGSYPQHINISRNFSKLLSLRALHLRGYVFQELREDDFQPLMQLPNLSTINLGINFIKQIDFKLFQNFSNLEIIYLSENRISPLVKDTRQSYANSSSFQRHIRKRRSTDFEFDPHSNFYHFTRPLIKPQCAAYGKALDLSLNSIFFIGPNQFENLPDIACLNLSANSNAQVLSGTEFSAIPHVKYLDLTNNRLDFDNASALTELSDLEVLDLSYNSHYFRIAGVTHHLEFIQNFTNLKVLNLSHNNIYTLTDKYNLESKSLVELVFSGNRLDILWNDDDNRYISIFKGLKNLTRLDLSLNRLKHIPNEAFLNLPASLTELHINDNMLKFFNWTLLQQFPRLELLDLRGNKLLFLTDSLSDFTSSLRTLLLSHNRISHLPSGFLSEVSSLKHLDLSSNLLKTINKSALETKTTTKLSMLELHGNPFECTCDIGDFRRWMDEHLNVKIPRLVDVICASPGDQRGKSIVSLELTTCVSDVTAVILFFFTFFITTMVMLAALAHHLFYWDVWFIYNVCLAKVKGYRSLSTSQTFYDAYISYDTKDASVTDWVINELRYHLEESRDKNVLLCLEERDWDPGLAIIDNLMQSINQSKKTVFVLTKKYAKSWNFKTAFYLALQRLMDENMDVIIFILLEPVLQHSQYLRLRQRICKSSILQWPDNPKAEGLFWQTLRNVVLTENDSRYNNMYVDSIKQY
The data set is described as follows: MST (microscale thermophoresis) direct interaction with TLR8. The data set is classed as binding. Conditions: Cy5-labeled miR. An excerpt: In the context of the present invention, a direct interaction of miR-574-5p with TLR8 was detected by means of MST (microscale thermophoresis); (Wienken C. J., Baaske P., Rothbauer U., Braun D. and Duhr S. (2010). “Protein-binding assays in biological liquids using microscale thermophoresis.” Nat Commun 1: 100). […] For the MST experiments Cy5-labeled miR-574-5p (SEQ ID NO: 18) and Cy5-labeled miR-16-5p (SEQ ID NO: 19) were used.
A general note: In MST a laser heats a spot of the sample, and binding alters the fluorescence response.

Where [7] appears, read: 10 ng/ml, compared with miR-574-5p oe sEVs (FIGS. 11E and 11F).

Regarding `CCOCc1nc2c(N)nc3ccccc3c2n1CC(C)(C)O` [R848], in data set [1], the osteoclast genesis result is on record as “no significant increase”. In data set [2] (setting [7]), the “IL-23 mRNA” value is on record as “Comparable results” and the “INFα mRNA” value is “Comparable results”.
For the compound “GRKKRWFRRRRMKWKK-(eg1)-ctcacacacacacactca(K—CONH2) (PEG linker, C-terminal amide; Cell Penetrating Peptide (CPP); Peptide Nucleic Acid (PNA) AntagomiR) [CPP-coupled miR-574-5p PNA AntagomiR]”, in data set [3] (added on day 1 at 10 μM or 20 μM, versus 0 μM, TRAP positive multinuclear cells), the osteoclast genesis entry is reported as “concentration-dependent reduction”. In data set [4], the “cytotoxicity (MTT, viability)” value is given as “Neither in the case of the negative control (FIG. 13A) nor in the case of miR-574-5p PNA AntagomiR (FIG. 13B) a significant toxicity was observed” and the “viability in comparison to the untreated control” value is on record as “increased viability”.
Turning to “GRKKRWFRRRRMKWKK-(eg1)-gctattaccttaacccag(K—NH2) (GCTATTACCTTAACCCAG; all peptide nucleic acid (PNA); N-terminal cell-penetrating peptide via eg1 linker, C-terminal lysine amide, further chemistry not fully specified) [negative control]”, the “cytotoxicity (MTT, viability)” value in data set [4] was “Neither in the case of the negative control (FIG. 13A) nor in the case of miR-574-5p PNA AntagomiR (FIG. 13B) a significant toxicity was observed”.
On to “ODN 2087: TLR7/8 inhibitor oligonucleotide, SEQ ID NO: 24, MiltenyiBiotec (TCCTGAGCTTGAAGT; DNA, all phosphorothioate, methylation of C not given here)”, for which, in data set [3] (added with R848 (FIGS. 10E and 10F)), the “effect of inhibitor on the R848 effect on the number of osteoclasts” value is recorded as “nullify the effect”. Besides, the “effect of inhibitor on the miR-574-5p induced increase of the number of osteoclasts” value in data set [3] (added with miR-574-5p to CD14+ monocytes (FIG. 10C)) and in data set [5] was “nullifies the effect” each time. The “effect of inhibitor on the induced INFα and IL-23 mRNA increases” value in data set [2] (added to the stimulation with sEVs or R848) is “nullify the observed effects”.
With “miR-16-5p: microRNA; Cy5-labeled form (SEQ ID NO: 19) used for MST (UAGCAGCACGUAAAUAUUGGCG; RNA, 3' {Cy5}, backbone not given here)”, the “specific interaction with TLR8” value in data set [6] was “specific interaction between TLR8 and miR-16-5p was not shown; also recorded: specific interaction between TLR8 and miR-16-5p was not observed”.
Regarding “miR-574-5p: microRNA, SEQ ID NO: 4; Cy5-labeled form (SEQ ID NO: 18) used for MST (UGAGUGUGUGUGUGUGAGUGUGU; Cy5-labeled form used for MST, label position not given here; listed as Homo sapiens)”, the “stimulation of the osteoclast genesis” value in data set [3] (miR-574-5p alone, not in sEVs (FIG. 9)) is listed as “Neither miR-574-5p alone, nor miR-574-5p in the presence of synthetic liposomal vehicles (Lipofectamine® 2000 (Thermo Fisher Scientific, Waltham, USA)) results in a stimulation”. The “stimulation of the osteoclast genesis” value in data set [3] (miR-574-5p in the presence of synthetic liposomal vehicles (Lipofectamine 2000) (FIG. 9)) was “Neither miR-574-5p alone, nor miR-574-5p in the presence of synthetic liposomal vehicles (Lipofectamine® 2000 (Thermo Fisher Scientific, Waltham, USA)) results in a stimulation”. In addition, the Kd (as a rule, the constant that tells how readily two partners part at equilibrium) in data set [6] (read-out: constant of dissociation KD) was determined as 0.0308 ± 0.0052 µM. Further, in data set [2] (any of the conditions tested), the “IL-1β mRNA level” value is reported as “not influenced”, the “IL-8 mRNA level” value was “not influenced” and the “TNFα mRNA level” value is given as “not influenced”.
